Source: PubChem BioAssay AID1919017 (Molecular Pharmacology Branch, DTP, NCI, 2023)

Tested on: SW1271 complex spheroids with HUVEC/MSC, growth, % test/control
Assay: Anticancer human tumor SW1271 cell line growth inhibition [AhR];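 also: spheroids exposed to agents for 7 days before readout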
Details: for IC50: curve of first compound; for viability, T/C: stronger effect = lower value
From the text: Multicellular complex tumor spheroid response to aryl hydrocarbon receptor antagonists in combination with a variety of drugs and investigational agents in selected tumor cell lines
The current study was undertaken to assess response to aryl hydrocarbon receptor antagonists in combination with standard-of-care drugs and investigational agents in solid tumor complex spheroid models. Complex spheroids include a stromal component modeled by human endothelial cells (HUVEC) and fibroblasts modeled by human mesenchymal stem cells (MSCs). The concentration ranges selected for each drug and investigational agent were based upon clinically achievable concentrations if the clinical Cmax of the agent was known.
Compounds. The drugs and investigational agents: BAY 2416964 (NSC825713), GNF351 (NSC835774), CH-223191 (NSC835775), CPI-455 (NSC825282), aza-TdCyd (NSC777586), decitabine (NSC127716), belinostat (NSC758774), entinostat (NSC756642), pevonedistat (NSC761192), tazemetostat (NSC777109), talazoparib (NSC765396), olaparib (NSC753686), selinexor (NSC780203), nedisertib (M3814, NSC802822), bortezomib (NSC756655), venetoclax (NSC766270), doxorubicin (NSC123127), elimusertib (BAY189344, NSC800525), ceralasertib (AZD6738, NSC777638), TAK-243 (NSC785004), alisertib (NSC759677), etoposide (NSC141540), topotecan (NSC609699), eribulin (NSC707389), gemcitabine (NSC613327), carboplatin (NSC241240), cisplatin (NSC119875), and SN-38 (NSC673596) were obtained from the National Cancer Institute (NCI) Developmental Therapeutics Program Chemical Repository (32). The FDA-approved anticancer drug set is available from the Developmental Therapeutics Program at https://dtp.cancer.gov/organization/dscb/obtaining/available plates.htm. […] The stock solutions were prepared in dimethyl sulfoxide (DMSO, Sigma-Aldrich, St. Louis, MO, cat. D2650), except for the platinum compounds which were prepared in saline (Quality Biological, Gaithersburg, MD, cat. 114-055-101), at 800-fold the tested concentration and stored at -70 degrees C prior to their use. All drugs and investigational agents were tested over a range starting from a high concentration at or near the clinical Cmax and decreasing in half-log increments. If the clinical Cmax for an agent had not been determined, the highest concentration tested was 10 microM (Table 1).
Cell Culture. All cells were maintained in an incubator at 37 degrees C and 5% CO2 with 95% humidity. The PDC lines were cultured according to standard operating procedures established by the NCI PDMR (https://pdmr.cancer.gov). Briefly, all PDCs were thawed and cultured in Matrigel-coated flasks prepared with a working solution of 1X Ham's F-12 nutrient mix, without supplementation (Invitrogen, Waltham, MA, cat. 11765054), 100 U/mL penicillin-streptomycin (Invitrogen, cat. 15140122), and 2.5% Matrigel (Corning Inc., Corning, NY, cat. 354248) for the first three passages. All PDCs were cultured in complete DMEM/F-12 media containing advanced DMEM/F-12 (Invitrogen, cat. 12634028), 4.9% defined fetal bovine serum, heat inactivated (HyClone Laboratories Inc., Logan, UT, cat. SH30070.03HI), 389 ng/mL hydrocortisone (Sigma-Aldrich, cat. H4001), 9.7 ng/mL human EGF recombinant protein (Invitrogen, cat. PHG0313), 23.4 microg/mL adenine (Sigma-Aldrich, cat. A2786), 97.3 U/mL penicillin-streptomycin (Invitrogen, cat. 15140122), 1.9 mM L-glutamine (Invitrogen, cat. 25030081), and 9.7 microM Y-27632 dihydrochloride (Tocris Bioscience, Bristol, United Kingdom, cat. 1254). The PDCs were cultured in complete DMEM/F12 media without 10 microM Y-27632 dihydrochloride for at least two passages prior to the screen. The established cell lines NCI-H1341 and […] were cultured in DMEM/F-12, HEPES (Invitrogen, cat. 11330032), 5% defined fetal bovine serum (HyClone Laboratories Inc., cat. SH30070.03), ITS premix universal culture supplement [insulin (5 microg/mL), transferrin (5 microg/mL), and selenious acid (5 ng/mL)] […]

[1] = second compound 0.1 µM, first compound 0.00316 µM
[2] = second compound 0.1 µM, first compound 0.01 µM
[3] = second compound 0.1 µM, first compound 0.0316 µM
[4] = second compound 0.1 µM, first compound 0.1 µM
[5] = second compound 0.316 µM, first compound 0.00316 µM
[6] = second compound 0.316 µM, first compound 0.01 µM
[7] = second compound 0.316 µM, first compound 0.0316 µM
[8] = second compound 0.316 µM, first compound 0.1 µM
[9] = second compound 1 µM, first compound 0.00316 µM
[10] = second compound 1 µM, first compound 0.01 µM
[11] = second compound 1 µM, first compound 0.0316 µM
[12] = second compound 1 µM, first compound 0.1 µM
[13] = second compound 3.16 µM, first compound 0.00316 µM
[14] = second compound 3.16 µM, first compound 0.01 µM
[15] = second compound 3.16 µM, first compound 0.0316 µM
[16] = second compound 3.16 µM, first compound 0.1 µM
[17] = second compound 10 µM, first compound 0.00316 µM
[18] = second compound 10 µM, first compound 0.01 µM
[19] = second compound 10 µM, first compound 0.0316 µM
[20] = second compound 10 µM, first compound 0.1 µM
[21] = second compound 0.1 µM, first compound 0.316 µM
[22] = second compound 0.1 µM, first compound 1 µM
[23] = second compound 0.1 µM, first compound 3.16 µM
[24] = second compound 0.1 µM, first compound 10 µM
[25] = second compound 0.316 µM, first compound 0.316 µM
[26] = second compound 0.316 µM, first compound 1 µM
[27] = second compound 0.316 µM, first compound 3.16 µM
[28] = second compound 0.316 µM, first compound 10 µM
[29] = second compound 1 µM, first compound 0.316 µM
[30] = second compound 1 µM, first compound 1 µM
[31] = second compound 1 µM, first compound 3.16 µM
[32] = second compound 1 µM, first compound 10 µM
[33] = second compound 3.16 µM, first compound 0.316 µM
[34] = second compound 3.16 µM, first compound 1 µM
[35] = second compound 3.16 µM, first compound 3.16 µM
[36] = second compound 3.16 µM, first compound 10 µM
[37] = second compound 10 µM, first compound 0.316 µM
[38] = second compound 10 µM, first compound 1 µM
[39] = second compound 10 µM, first compound 3.16 µM
[40] = second compound 10 µM, first compound 10 µM

Compound | IC50 (second compound 0.1 µM) | IC50 (second compound 0.316 µM) | IC50 (second compound 1 µM) | IC50 (second compound 3.16 µM) | IC50 (second compound 10 µM) | viability, T/C [3] | viability, T/C [4] | viability, T/C [7] | viability, T/C [8] | viability, T/C [11] | viability, T/C [12] | viability, T/C [15] | viability, T/C [16] | viability, T/C [19] | viability, T/C [20] | viability, T/C [21] | viability, T/C [22] | viability, T/C [25] | viability, T/C [26] | viability, T/C [29] | other results
CC[C@@]1(O)C(=O)OCc2c1cc1n(c2=O)Cc2cc3c(CN(C)C)c(O)ccc3nc2-1 + CC(CO)NC(=O)c1cc(-c2ccc(Cl)cc2)nn(-c2cnn(C)c2)c1=O | > 100 nM | > 100 nM | > 100 nM | > 100 nM | > 100 nM | 65.8% | 58% | 68.2% | 50.2% | 57.2% | 62.8% | 61.8% | 53.5% | 60.2% | 51.9% |  |  |  |  |  | viability, T/C (second compound 0.1 µM, first compound 0.000316 µM): 93.6%; viability, T/C (second compound 0.1 µM, first compound 0.001 µM): 91.3%; viability, T/C [1]: 75.2%; viability, T/C [2]: 81.6%; viability, T/C (second compound 0.316 µM, first compound 0.000316 µM): 92.9%; viability, T/C (second compound 0.316 µM, first compound 0.001 µM): 70.6%; viability, T/C [5]: 91.1%; viability, T/C [6]: 87.4%; viability, T/C (second compound 1 µM, first compound 0.000316 µM): 81%; viability, T/C (second compound 1 µM, first compound 0.001 µM): 73.6%; viability, T/C [9]: 84.4%; viability, T/C [10]: 87%; viability, T/C (second compound 3.16 µM, first compound 0.000316 µM): 77.9%; viability, T/C (second compound 3.16 µM, first compound 0.001 µM): 85.2%; viability, T/C [13]: 69.8%; viability, T/C [14]: 61.6%; viability, T/C (second compound 10 µM, first compound 0.000316 µM): 75.8%; viability, T/C (second compound 10 µM, first compound 0.001 µM): 73.8%; viability, T/C [17]: 63.5%; viability, T/C [18]: 69.3%
COc1cc(C2c3cc4c(cc3C(OC3OC5COC(C)OC5C(O)C3O)C3COC(=O)C23)OCO4)cc(OC)c1O (stereo not given) + CC(CO)NC(=O)c1cc(-c2ccc(Cl)cc2)nn(-c2cnn(C)c2)c1=O | 9250 nM | 5010 nM | 8480 nM | 3030 nM | 2910 nM | 78.3% | 74.3% | 93.5% | 77.6% | 64.7% | 78.5% | 70.9% | 68% | 71.1% | 65% | 66.5% | 72.7% | 60.4% | 57.9% | 59.4% | viability, T/C [23]: 57.1%; viability, T/C [24]: 49.5%; viability, T/C [27]: 56%; viability, T/C [28]: 44.5%; viability, T/C [30]: 60.1%; viability, T/C [31]: 61.6%; viability, T/C [32]: 47.7%; viability, T/C [33]: 59.6%; viability, T/C [34]: 45.2%; viability, T/C [35]: 59.2%; viability, T/C [36]: 43.6%; viability, T/C [37]: 50.7%; viability, T/C [38]: 63.7%; viability, T/C [39]: 43.4%; viability, T/C [40]: 48.3%
COc1cccc2c1C(=O)c1c(O)c3c(c(O)c1C2=O)CC(O)(C(=O)CO)CC3OC1CC(N)C(O)C(C)O1 (stereo not given) + CC(CO)NC(=O)c1cc(-c2ccc(Cl)cc2)nn(-c2cnn(C)c2)c1=O | 348 nM | 136 nM | 151 nM | 337 nM | 165 nM | 62.5% | 67.7% | 49.2% | 61.1% | 72% | 52.9% | 68.6% | 54% | 58.7% | 61.3% | 54% | 5.59% | 35.6% | 4% | 39.2% | viability, T/C [23]: 1.72%; viability, T/C [24]: 3.58%; viability, T/C [27]: 1.69%; viability, T/C [28]: 2.61%; viability, T/C [30]: 3.81%; viability, T/C [31]: 1.11%; viability, T/C [32]: 2.5%; viability, T/C [33]: 52.8%; viability, T/C [34]: 1.66%; viability, T/C [35]: 2.16%; viability, T/C [36]: 2.9%; viability, T/C [37]: 37%; viability, T/C [38]: 0.78%; viability, T/C [39]: 1.79%; viability, T/C [40]: 3.41%
Nc1ncn(C2CC(O)C(CO)O2)c(=O)n1 (stereo not given) + CC(CO)NC(=O)c1cc(-c2ccc(Cl)cc2)nn(-c2cnn(C)c2)c1=O | > 1000 nM | > 1000 nM | > 1000 nM | > 1000 nM | > 1000 nM | 80% | 75.9% | 77.5% | 79.7% | 81.6% | 75.1% | 79.3% | 67.1% | 67.5% | 67.2% | 93% | 66.8% | 62.1% | 105% | 75.8% | viability, T/C [1]: 73.8%; viability, T/C [2]: 85.4%; viability, T/C [5]: 78.2%; viability, T/C [6]: 88%; viability, T/C [9]: 76%; viability, T/C [10]: 79.7%; viability, T/C [30]: 76.1%; viability, T/C [13]: 60%; viability, T/C [14]: 81%; viability, T/C [33]: 68.8%; viability, T/C [34]: 78%; viability, T/C [17]: 65.9%; viability, T/C [18]: 66.5%; viability, T/C [37]: 59.1%; viability, T/C [38]: 54.6%
